Biological target: T1, IGF-1R Ba/F3 (Homo sapiens, UniProt P08069)
T1 construct: fused on or other part: TEL- (or BCR-) IGF-1R in Ba/F3: the kinase part holds the site
Test: Ba/F3 Cell Viability Inhibition Assay (IGF-1R Ba/F3)
Assay type: cell-based, murine
Details: Tel-TK transformed Ba/F3 cells, 48 hours, Britelite luminescence
Method in brief: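 A 48 h compound treatment at 37 °C (3750 cells/well) was followed by Britelite luminescence to measure viability. Cells were Ba/F3 pro-B cells, IL-3-independent via TEL-fused IGF-1R kinase transduction. A logistic fit gave IC50 as 50% viability relative to DMSO control.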

T1 sequence (P08069 999-1274 limits assumed): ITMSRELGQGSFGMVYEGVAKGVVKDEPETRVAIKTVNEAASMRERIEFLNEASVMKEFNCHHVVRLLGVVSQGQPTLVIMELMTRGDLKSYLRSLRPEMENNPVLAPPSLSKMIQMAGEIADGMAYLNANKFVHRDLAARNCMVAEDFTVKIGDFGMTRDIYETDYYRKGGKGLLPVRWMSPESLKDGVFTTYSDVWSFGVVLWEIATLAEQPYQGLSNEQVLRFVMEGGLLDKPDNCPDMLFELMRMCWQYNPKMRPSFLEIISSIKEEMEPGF

SMILES	IC50 [nM]
CNC(=O)CN1CCC(c2cc(C)c(Nc3ncc(Cl)c(Nc4cc(C)[nH]n4)n3)cc2Cl)CC1 [Compound 45, 2-(4-(2-chloro-4-(5-chloro-4-(5-methyl-1H-pyrazol-3-ylamino)pyrimidin-2-ylamino)-5-methylphenyl)piperidin-1-yl)-N-methylacetamide]	18
Cc1cc(Nc2nc(Nc3cc(C)c(C4CCN(C(=O)[C@@H]5COCCN5C(C)C)CC4)cc3F)ncc2Cl)n[nH]1 [Compound 126, (S)-(4-(4-(5-chloro-4-(5-methyl-1H-pyrazol-3-ylamino)pyrimidin-2-ylamino)-5-fluoro-2-methylphenyl)piperidin-1-yl)(4-isopropylmorpholin-3-yl)methanone]	29
CCN(CC)CC(=O)N1CCC(c2cc(F)c(Nc3ncc(Cl)c(Nc4cc(C)[nH]n4)n3)cc2C)CC1 [Compound 81, 1-(4-(4-(5-chloro-4-(5-methyl-1H-pyrazol-3-ylamino)pyrimidin-2-ylamino)-5-fluoro-2-methylphenyl)piperidin-1-yl)-2-(diethylamino)ethanone]	30
CCc1cc(Nc2nc(Nc3cc(C)c(C4CCN(CC)CC4)cc3F)ncc2Cl)n[nH]1 [Compound 268, 5-chloro-N4-(5-ethyl-1H-pyrazol-3-yl)-N2-(4-(1-ethylpiperidin-4-yl)-2-fluoro-5-methylphenyl)pyrimidine-2,4-diamine]	22
Cc1cc(Nc2nc(Nc3cc(C)c(C4CCN(C(=O)CCCN5CCOCC5)CC4)cc3C)ncc2Cl)n[nH]1 [Compound 224, 1-(4-(4-(5-Chloro-4-(5-methyl-1H-pyrazol-3-ylamino)pyrimidin-2-ylamino)-2,5-dimethylphenyl)piperidin-1-yl)-4-morpholinobutan-1-one]	20
CNC(=O)CN1CCC(c2cc(C)c(Nc3ncc(Cl)c(Nc4cc(C)[nH]n4)n3)cc2OC)CC1 [Compound 46, 2-(4-(4-(5-chloro-4-(5-methyl-1H-pyrazol-3-ylamino)pyrimidin-2-ylamino)-2-methoxy-5-methylphenyl)piperidin-1-yl)-N-methylacetamide]	13
CNC(=O)CN1CCC(c2cc(F)c(Nc3ncc(Cl)c(Nc4cc(C(F)(F)F)[nH]n4)n3)cc2C)CC1 [Compound 172, 2-(4-(4-(5-chloro-4-(5-(trifluoromethyl)-1H-pyrazol-3-ylamino)pyrimidin-2-ylamino)-5-fluoro-2-methylphenyl)piperidin-1-yl)-N-methylacetamide]	69
Cc1cc(Nc2nc(Nc3cc(C)c(C4CCN(C5CCN(S(C)(=O)=O)CC5)CC4)cc3F)ncc2Cl)n[nH]1 [Compound 278, 5-chloro-N2-(2-fluoro-5-methyl-4-(1′-(methylsulfonyl)-1,4′-bipiperidin-4-yl)phenyl)-N4-(5-methyl-1H-pyrazol-3-yl)pyrimidine-2,4-diamine]	9
Cc1cc(Nc2nc(Nc3cc(C)c(C4CCN([C@H](C)C(N)=O)CC4)cc3F)ncc2Cl)n[nH]1 [Compound 165, (R)-2-(4-(4-(5-chloro-4-(5-methyl-1H-pyrazol-3-ylamino)pyrimidin-2-ylamino)-5-fluoro-2-methylphenyl)piperidin-1-yl)propanamide]	38
CC(=O)N1CCC(c2cc(C)c(Nc3ncc(Cl)c(Nc4cc(C)[nH]n4)n3)cc2C)CC1 [Compound 110, 1-(4-(4-(5-chloro-4-(5-methyl-1H-pyrazol-3-ylamino)pyrimidin-2-ylamino)-2,5-dimethylphenyl)piperidin-1-yl)ethanone]	13
Cc1cc(Nc2nc(Nc3cc(C)c(C4CCN(C(=O)C5(N)CCC5)CC4)cc3C)ncc2Cl)n[nH]1 [Compound 91, (1-aminocyclobutyl)(4-(4-(5-chloro-4-(5-methyl-1H-pyrazol-3-ylamino)pyrimidin-2-ylamino)-2,5-dimethylphenyl)piperidin-1-yl)methanone]	52
CNC(C)C(=O)N1CCC(c2cc(F)c(Nc3ncc(Cl)c(Nc4cc(C)[nH]n4)n3)cc2C)CC1 (centres unmarked) [Compound 85, 1-(4-(4-(5-chloro-4-(5-methyl-1H-pyrazol-3-ylamino)pyrimidin-2-ylamino)-5-fluoro-2-methylphenyl)piperidin-1-yl)-2-(methylamino)propan-1-one]	42
Cc1cc(Nc2nc(Nc3cc(C)c(C4CCN(C(=O)C5CNC5=O)CC4)cc3F)ncc2Cl)n[nH]1 (centres unmarked) [Compound 119, 3-(4-(4-(5-chloro-4-(5-methyl-1H-pyrazol-3-ylamino)pyrimidin-2-ylamino)-5-fluoro-2-methylphenyl)piperidine-1-carbonyl)azetidin-2-one]	2990
Cc1cc(Nc2nc(Nc3cc(C(F)(F)F)c(C4CCNCC4)cc3F)ncc2Cl)n[nH]1 [Compound 253, 5-chloro-N2-(2-fluoro-4-(piperidin-4-yl)-5-(trifluoromethyl)phenyl)-N4-(5-methyl-1H-pyrazol-3-yl)pyrimidine-2,4-diamine]	75
Cc1cc(Nc2nc(Nc3cc(C)c(C4CCCCN4C[C@@H](O)C(F)(F)F)cc3C)ncc2Cl)n[nH]1 (stereo partly drawn) [Compound 229, (2R)-3-(2-(4-(5-chloro-4-(5-methyl-1H-pyrazol-3-ylamino)pyrimidin-2-ylamino)-2,5-dimethylphenyl)piperidin-1-yl)-1,1,1-trifluoropropan-2-ol]	211
Cc1cc(Nc2nc(Nc3cc(C)c(C4CCN(C(=O)c5oc(C)nc5C)CC4)cc3F)ncc2Cl)n[nH]1 [Compound 127, (4-(4-(5-chloro-4-(5-methyl-1H-pyrazol-3-ylamino)pyrimidin-2-ylamino)-5-fluoro-2-methylphenyl)piperidin-1-yl)(2,4-dimethyloxazol-5-yl)methanone]	27
Cc1cc(Nc2nc(Nc3cc(C)c(C4CCN(C(=O)[C@H]5CCCN5C)CC4)cc3C)ncc2Cl)n[nH]1 [Compound 133, (R)-(4-(4-(5-chloro-4-(5-methyl-1H-pyrazol-3-ylamino)pyrimidin-2-ylamino)-2,5-dimethylphenyl)piperidin-1-yl)(1-methylpyrrolidin-2-yl)methanone]	13
Cc1cc(Nc2nc(Nc3cc(C)c(C4CCN(C(=O)[C@]5(C)CCCN5)CC4)cc3F)ncc2Cl)n[nH]1 [Compound 138, (S)-(4-(4-(5-chloro-4-(5-methyl-1H-pyrazol-3-ylamino)pyrimidin-2-ylamino)-5-fluoro-2-methylphenyl)piperidin-1-yl)(2-methylpyrrolidin-2-yl)methanone]	91
CCN1CCC(c2cc(C)c(Nc3ncc(Cl)c(Nc4cc(C5CC5)[nH]n4)n3)cc2C)CC1 [Compound 205, 5-chloro-N4-(5-cyclopropyl-1H-pyrazol-3-yl)-N2-(4-(1-ethylpiperidin-4-yl)-2,5-dimethylphenyl)pyrimidine-2,4-diamine]	19
Cc1cc(Nc2nc(Nc3cc(C)c(C4CCN(C5CCNC5)CC4)cc3F)ncc2Cl)n[nH]1 (centres unmarked) [Compound 299, 5-chloro-N2-(2-fluoro-5-methyl-4-(1-(pyrrolidin-3-yl)piperidin-4-yl)phenyl)-N4-(5-methyl-1H-pyrazol-3-yl)pyrimidine-2,4-diamine]	101
Cc1cc(Nc2nc(Nc3cc(C)c(C4CCN(C5CCNCC5)CC4)cc3F)ncc2Cl)n[nH]1 [Compound 276, N2-(4-(1,4′-bipiperidin-4-yl)-2-fluoro-5-methylphenyl)-5-chloro-N4-(5-methyl-1H-pyrazol-3-yl)pyrimidine-2,4-diamine]	437
Cc1cc(Nc2nc(Nc3cc(C)c(C4CC[N+]([O-])(C5CCOCC5)CC4)cc3F)ncc2Cl)n[nH]1 (centres unmarked) [Compound 294, 4-(4-(5-chloro-4-(5-methyl-1H-pyrazol-3-ylamino)pyrimidin-2-ylamino)-5-fluoro-2-methylphenyl)-1-(tetrahydro-2H-pyran-4-yl)piperidine 1-oxide]	64
Cc1cc(Nc2nc(Nc3cc(C)c(C4CCCN(CC(N)=O)C4)cc3C)ncc2Cl)n[nH]1 (centres unmarked) [Compound 41, 2-(3-(4-(5-chloro-4-(5-methyl-1H-pyrazol-3-ylamino)pyrimidin-2-ylamino)-2,5-dimethylphenyl)piperidin-1-yl)acetamide]	26
Cc1cc(Nc2nc(Nc3cc(C)c(C4CCN(CCC(=O)N5CCCC5)CC4)cc3F)ncc2Cl)n[nH]1 [Compound 242, 3-(4-(4-(5-chloro-4-(5-methyl-1H-pyrazol-3-ylamino)pyrimidin-2-ylamino)-5-fluoro-2-methylphenyl)piperidin-1-yl)-1-(pyrrolidin-1-yl)propan-1-one]	60
Cc1cc(Nc2nc(Nc3cc(C)c(C4CCN(CCCC(=O)N5CCOCC5)CC4)cc3F)ncc2Cl)n[nH]1 [Compound 246, 4-(4-(4-(5-Chloro-4-(5-methyl-1H-pyrazol-3-ylamino)pyrimidin-2-ylamino)-5-fluoro-2-methylphenyl)piperidin-1-yl)-1-morpholinobutan-1-one]	58
Cc1cc(Nc2nc(Nc3cc(C)c([C@@H]4COC(=O)N4)cc3C)ncc2Cl)n[nH]1 [Compound 231, (R)-4-(4-(5-chloro-4-(5-methyl-1H-pyrazol-3-ylamino)pyrimidin-2-ylamino)-2,5-dimethylphenyl)oxazolidin-2-one]	50
Cc1cc(C2CCN(C(=O)CN(C)C)CC2)c(C)cc1Nc1ncc(Cl)c(Nc2cc(C(F)(F)F)[nH]n2)n1 [Compound 223, 1-(4-(4-(5-chloro-4-(5-(trifluoromethyl)-1H-pyrazol-3-ylamino)pyrimidin-2-ylamino)-2,5-dimethylphenyl)piperidin-1-yl)-2-(dimethylamino)ethanone]	36
COCC(=O)N1CCC(c2cc(C)c(Nc3ncc(Cl)c(Nc4cc(C)[nH]n4)n3)cc2C)CC1 [Compound 106, 1-(4-(4-(5-chloro-4-(5-methyl-1H-pyrazol-3-ylamino)pyrimidin-2-ylamino)-2,5-dimethylphenyl)piperidin-1-yl)-2-methoxyethanone]	2
CCOC(=O)N1CCC(c2cc(F)c(Nc3ncc(Cl)c(Nc4cc(C)[nH]n4)n3)cc2C)CC1 [Compound 66, Ethyl 4-(4-(5-chloro-4-(5-methyl-1H-pyrazol-3-ylamino)pyrimidin-2-ylamino)-5-fluoro-2-methylphenyl)piperidine-1-carboxylate]	64
